This is an account of results in US9771359B1, “Substituted oxazole- and thiazole-based carboxamide and urea derivatives as vanilloid receptor ligands II” (MEDIFRON DBT INC., priority 2014, dated 2017).

In the experiment the target is vanilloid receptor 1 (VR1/TRPV1) (Homo sapiens (Human), UniProt Q8NER1). The experiment is described as follows: FLIPR assay, Ca2+ influx in CHO K1 cells transfected with the human VR1 gene. The note with it: for compound-alone effect on Ca2+ influx (agonist / partial agonist): compound 5 μM, % activation compared with control capsaicin 10 μM; for Ki: displacement of capsaicin 100 nM, Ki from IC50 by Cheng-Prusoff equation, read-out: (f) Ki (human) [nM] Cap. It is filed as cell-based. As for the experimental part: Furthermore, preference may be given to compounds according to the first aspect of the invention that cause a 50% displacement of capsaicin, which is present at a concentration of 100 nM, in a FLIPR assay with CHO K1 cells which were transfected with the human VR1 gene at a concentration of less than 2 000 nM, preferably less than 1 000 nM, particularly preferably less than 300 nM, most particularly preferably less than 100 nM, even more preferably less than 75 nM, additionally preferably less than 50 nM, most preferably less than 10 nM. In the process, the Ca^2+ influx is quantified in the FLIPR assay with the aid of a Ca^2+-sensitive dye (type Fluo-4, Molecular Probes Europe BV, Leiden, the Netherlands) in a fluorescent imaging plate reader (FLIPR, Molecular Devices, Sunnyvale, USA), as described hereinafter.
The FLIPR protocol consists of 2 substance additions during a kinetic measurement. First the compounds to be tested (5 μM) are pipetted onto the cells and the Ca^2+ influx is determined in comparison to the control (capsaicin 10 μM), providing the result as % activation and representing the compound-alone effect (calculation at peak signal related to baseline). […] After 5 min incubation, the Ca^2+ influx is related to an injection of 100 nM of capsaicin and thereby the antagonistic effect of the test compounds detected.
Desensitising agonists and antagonists lead to suppression of the Ca^2+ influx. The % inhibition is calculated compared to the maximum achievable inhibition with 10 μM of capsaicin. Triple analyses (n=3) are carried out and repeated in at least 3 independent experiments.
Starting from the percentage displacement caused by different concentrations of the compounds to be tested of general formula I, IC50 inhibitory concentrations which cause a 50-% displacement of capsaicin were calculated. Ki values for the test substances were obtained by conversion by means of the Cheng-Prusoff equation (Cheng, Prusoff; Biochem. Pharmacol. 22, 3099-3108, 1973).
Chinese hamster ovary cells (CHO K1 cells, European Collection of Cell Cultures (ECACC) United Kingdom) are stably transfected with the VR1 gene. For functional testing, these cells are plated out on poly-D-lysine-coated black 96-well plates having a clear base (BD Biosciences, Heidelberg, Germany) at a density of 25,000 cells/well. The cells are incubated overnight at 37° C. and 5% CO2 in a culture medium (Ham's F12 nutrient mixture, 10% by volume of FCS (foetal calf serum), 18 μg/ml of L-proline). The next day the cells are incubated with Fluo-4 (Fluo-4 2 μM, 0.01% by volume of Pluronic F127, Molecular Probes in HBSS (Hank's buffered saline solution), Gibco Invitrogen GmbH, Karlsruhe, Germany) for 30 min at 37° C. Subsequently, the plates are washed three times with HBSS buffer and after further incubation for 15 min at RT used for Ca^2+ measurement in a FLIPR assay. The Ca^2+-dependent fluorescence is measured before and after the addition of the substances to be tested (λex wavelength=488 nm, λem=540 nm). Quantification is carried out by measuring the highest fluorescence intensity (FC, fluorescence counts) over time.

Chain of vanilloid receptor 1 (VR1/TRPV1) (Q8NER1 whole entry): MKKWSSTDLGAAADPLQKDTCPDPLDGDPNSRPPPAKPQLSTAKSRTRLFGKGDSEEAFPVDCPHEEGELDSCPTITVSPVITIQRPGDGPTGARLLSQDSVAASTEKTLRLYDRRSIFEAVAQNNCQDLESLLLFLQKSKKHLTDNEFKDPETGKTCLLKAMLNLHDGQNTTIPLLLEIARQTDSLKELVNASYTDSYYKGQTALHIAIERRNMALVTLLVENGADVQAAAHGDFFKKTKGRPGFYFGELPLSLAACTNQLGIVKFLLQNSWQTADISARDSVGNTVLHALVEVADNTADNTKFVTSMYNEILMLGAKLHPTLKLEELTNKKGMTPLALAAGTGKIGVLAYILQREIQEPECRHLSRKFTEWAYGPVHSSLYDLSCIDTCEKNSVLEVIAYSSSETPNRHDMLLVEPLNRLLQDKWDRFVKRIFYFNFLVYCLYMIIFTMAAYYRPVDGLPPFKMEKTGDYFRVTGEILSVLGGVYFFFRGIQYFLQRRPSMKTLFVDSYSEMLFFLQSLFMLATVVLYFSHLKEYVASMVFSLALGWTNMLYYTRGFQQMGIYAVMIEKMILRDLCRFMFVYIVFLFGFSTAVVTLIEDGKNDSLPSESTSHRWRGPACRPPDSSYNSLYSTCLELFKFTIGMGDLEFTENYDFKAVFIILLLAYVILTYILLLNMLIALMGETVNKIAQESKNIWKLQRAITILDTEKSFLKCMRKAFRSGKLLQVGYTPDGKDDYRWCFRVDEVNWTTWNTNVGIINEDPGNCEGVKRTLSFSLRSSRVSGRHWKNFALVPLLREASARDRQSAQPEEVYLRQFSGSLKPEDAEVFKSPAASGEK

Regarding `CC(C)(C)c1nc(-c2cccc(Cl)c2)c(CNC(=O)Nc2cccc3c2CCC3)s1` [EX-51, 1-((2-(tert-butyl)-4-(3-chlorophenyl)thiazol-5-yl)methyl)-3-(2,3-dihydro-1H-inden-4-yl)urea], the “compound-alone effect on Ca2+ influx (agonist / partial agonist)” value was “pAG (A Ca^2+ influx of 10%-60% reveals a partial agonist (pAG))” and the inhibition constant (Ki) (commonly the equilibrium dissociation constant of an inhibitor or competing ligand from its target) is 2.9 nM.
As for `CC(C)(C)c1nc(-c2cccc(Cl)c2)c(CNC(=O)Nc2ccc3cnccc3c2)s1` [EX-52, 1-((2-(tert-butyl)-4-(3-chlorophenyl)thiazol-5-yl)methyl)-3-(isoquinolin-6-yl)urea], the “compound-alone effect on Ca2+ influx (agonist / partial agonist)” value is given as “AG (a Ca^2+ influx of >60% relates to a pure agonist (AG))”.
For `CC(C)(C)c1nc(-c2cccc(Cl)c2)c(CNC(=O)Nc2cccc3ncccc23)s1` [EX-53, 1-((2-(tert-butyl)-4-(3-chlorophenyl)thiazol-5-yl)methyl)-3-(quinolin-5-yl)urea], the “compound-alone effect on Ca2+ influx (agonist / partial agonist)” value is listed as “AG (a Ca^2+ influx of >60% relates to a pure agonist (AG))”.
For the molecule `CC(C)(C)c1nc(-c2cccc(Cl)c2)c(CNC(=O)Nc2ccc3c(c2)OCCO3)s1` [EX-54, 1-((2-(tert-butyl)-4-(3-chlorophenyl)thiazol-5-yl)methyl)-3-(2,3-dihydrobenzo[b][1,4]dioxin-6-yl)urea], the Ki turned out to be 5.9 nM.
For the molecule `CC(C)(C)c1nc(-c2cccc(Cl)c2)c(CNC(=O)Nc2ccc3c(c2)CCC3)s1` [EX-55, 1-((2-(tert-butyl)-4-(3-chlorophenyl)thiazol-5-yl)methyl)-3-(2,3-dihydro-1H-inden-5-yl)urea], the Ki was determined as 12.3 nM.
For `CC(C)(C)c1nc(-c2cccc(Cl)c2)c(CNC(=O)Nc2cccc3cnccc23)s1` [EX-56, 1-((2-(tert-butyl)-4-(3-chlorophenyl)thiazol-5-yl)methyl)-3-(isoquinolin-5-yl)urea], the Ki stood at 0.1 nM.
For the molecule `CC(C)(C)c1nc(-c2cccc(Cl)c2)c(CNC(=O)Nc2ccc(CNS(C)(=O)=O)c(F)c2)s1` [EX-57, N-(4-(3-((2-(tert-butyl)-4-(3-chlorophenyl)thiazol-5-yl)methyl)ureido)-2-fluorobenzyl)methanesulfonamide], the Ki came to 6.6 nM.
Same read-out and setting: then `Cc1cccc(-c2nc(C(C)(C)C)sc2CNC(=O)Nc2ccc(CNS(C)(=O)=O)c(F)c2)c1` [EX-58, N-(4-(3-((2-(tert-butyl)-4-(m-tolyl)thiazol-5-yl)methyl)ureido)-2-fluorobenzyl)methanesulfonamide], with 2.3 nM.
As for `CC(C)(C)c1nc(-c2cccc(Cl)c2)c(CNC(=O)Nc2ccc(CO)c(F)c2)s1` [EX-59, 1-((2-(tert-butyl)-4-(3-chlorophenyl)thiazol-5-yl)methyl)-3-(3-fluoro-4-(hydroxymethyl)phenyl)urea], the “compound-alone effect on Ca2+ influx (agonist / partial agonist)” value was “pAG (A Ca^2+ influx of 10%-60% reveals a partial agonist (pAG))” and the Ki was 1.1 nM.
For `Cc1cccc(-c2nc(C(C)(C)C)sc2CNC(=O)Nc2ccc(CO)c(F)c2)c1` [EX-60, 1-((2-(tert-butyl)-4-(m-tolyl)thiazol-5-yl)methyl)-3-(3-fluoro-4-(hydroxymethyl)phenyl)urea], the “compound-alone effect on Ca2+ influx (agonist / partial agonist)” value was “pAG (A Ca^2+ influx of 10%-60% reveals a partial agonist (pAG))” and the Ki was 3.2 nM.
